Series [1] in a line: Selectivity index, ratio of GI50 for human THP1 cells to MIC90 for active stage of Mycobacterium bovis BCG ATCC 35743. It is filed as toxicity, cell-based, THP-1. As to conditions: read-out: Selectivity Index.
Series [2] can be described thus: Selectivity index, ratio of GI50 for human THP1 cells to MIC90 for active stage of Mycobacterium tuberculosis H37Ra. It is filed as toxicity, cell-based, THP-1. As to conditions: read-out: Selectivity Index.
The nature of series [3]: Selectivity index, ratio of GI50 for human HCT116 cells to MIC90 for active stage of Mycobacterium bovis BCG ATCC 35743. As to conditions: read-out: Selectivity Index. It is filed as toxicity, cell-based, HCT-116.
The nature of series [4]: Selectivity index, ratio of GI50 for human HCT116 cells to MIC90 for active stage of Mycobacterium tuberculosis H37Ra. It is filed as toxicity, cell-based, HCT-116. As to conditions: read-out: Selectivity Index.
The nature of series [5]: Selectivity index, ratio of GI50 for human A549 cells to MIC90 for active stage of Mycobacterium bovis BCG ATCC 35743. It is filed as toxicity, cell-based. As to conditions: read-out: Selectivity Index.
Series [6] is described as follows: Selectivity index, ratio of GI50 for human A549 cells to MIC90 for active stage of Mycobacterium tuberculosis H37Ra. The conditions noted are these: read-out: Selectivity Index. It is filed as toxicity, cell-based.
Series [7] can be described thus: Selectivity index, ratio of GI50 for human MCF7 cells to MIC90 for active stage of Mycobacterium bovis BCG ATCC 35743. The series is classed as toxicity, cell-based. As to conditions: read-out: Selectivity Index.
The nature of series [8]: Selectivity index, ratio of GI50 for human MCF7 cells to MIC90 for active stage of Mycobacterium tuberculosis H37Ra. The series is classed as toxicity, cell-based. The conditions noted are these: read-out: Selectivity Index.
The nature of series [9]: Cytotoxicity against human THP1 cells incubated for 1 to 11 days by MTT assay. The series is classed as cell-based, THP-1.
A short description of series [10]: Cytotoxicity against human HCT116 cells incubated for 1 to 11 days by MTT assay. It is filed as cell-based, HCT-116. For orientation: Tetrazolium dyes change colour on reduction, which living cells bring about.
The test system of series [11] is Mycobacterium tuberculosis. As to the kind of experiment: Antitubercular activity against active stage of Mycobacterium tuberculosis H37Ra assessed as cell viability after 8 days by XTT reduction menadione assay. The series is classed as functional. The conditions noted are these: 192 h.
The test system of series [12] is Mycobacterium tuberculosis. As to the kind of experiment: Antitubercular activity against dormant stage of Mycobacterium tuberculosis H37Ra assessed as cell viability after 12 days by XTT reduction menadione assay. The conditions noted are these: 288 h. The series is classed as functional.
The nature of series [13]: Antibacterial activity against active stage of Mycobacterium bovis BCG ATCC 35743 assessed as cell viability after 8 days by nitrate reductase assay. The series is classed as functional, Mycobacterium bovis BCG str. ATCC 35743. The conditions noted are these: Mycobacterium tuberculosis variant bovis BCG, ATCC 35743, 192 h.
Series [14] is described as follows: Antibacterial activity against dormant stage of Mycobacterium bovis BCG ATCC 35743 assessed as cell viability after 12 days by nitrate reductase assay. The series is classed as functional, Mycobacterium bovis BCG str. ATCC 35743. The conditions noted are these: Mycobacterium tuberculosis variant bovis BCG, ATCC 35743, 288 h.
Series [15] can be described thus: Cytotoxicity against human MCF7 cells incubated for 1 to 11 days by MTT assay. It is filed as cell-based.
Series [16] can be described thus: Cytotoxicity against human A549 cells incubated for 1 to 11 days by MTT assay. It is filed as cell-based. As to conditions: A549 cells.

The term GI50 denotes the concentration at which growth is held to half of that of the control. Usually MIC90 stands for the lowest concentration that inhibits either 90% of growth or 90% of the strains tested, depending on the study.

In brackets after ≈: the same amount, converted by molar mass.

`C=CCCCCCCCc1cc2c(=O)n(CCBr)cnc2s1`: the selectivity ratio in series [1] worked out at 41; in series [2] it was 29; in [3] it was 18; in [4], 12; in [5] it was 19; in series [6], 13. For the same molecule, the selectivity ratio in [7] is 11; in [8], 7. The GI50 is more than 100 mg/L in [9], 42.4 mg/L (≈ 111 µM) in [10], 26.1 mg/L (≈ 68.1 µM) in [15] and 45.4 mg/L (≈ 119 µM) in series [16]. For the same molecule, the MIC90 was determined as 3.5 mg/L in series [11], 6.31 mg/L (≈ 16.5 µM) in series [12], 2.42 mg/L (≈ 6.31 µM) in series [13] and 1.4 mg/L (≈ 3.65 µM) in series [14].

Take `CC(=O)O[C@H]1C(=O)[C@@]2(C)[C@H]([C@H](OC(=O)c3ccccc3)[C@]3(O)C[C@H](OC(=O)[C@H](O)[C@@H](NC(=O)c4ccccc4)c4ccccc4)C(C)=C1C3(C)C)[C@]1(OC(C)=O)CO[C@@H]1C[C@@H]2O` [PACLITAXEL]: the GI50 in series [9] was 0.137 mg/L (≈ 0.161 µM); in [10] it was 0.026 mg/L (≈ 0.0304 µM); in series [15] it was 0.0048 mg/L (≈ 0.00562 µM).

Consider `CCCCCc1cc2c(=O)n(CCC)cnc2s1`, for which the selectivity ratio is 12 in series [1]; 2 in series [2]; 12 in series [3]; 2 in [4]; 3 in series [5]; 1 in series [6]. Moreover, the selectivity ratio in series [7] was found to be 4; in series [8], 1. In addition, the GI50 in series [9] was more than 100 mg/L; in series [10], more than 100 mg/L; in series [15], 33.8 mg/L (≈ 128 µM); in series [16], 27.4 mg/L (≈ 103 µM). Besides, the MIC90 in series [11] was 42.9 mg/L; in series [12], 36.3 mg/L (≈ 137 µM); in series [13], 8.51 mg/L (≈ 32.2 µM); in series [14], 9.82 mg/L (≈ 37.1 µM).

On to `CCCCCCCCCCc1cc2c(=O)n(CCBr)cnc2s1`, for which the selectivity ratio in series [1] came out at 44; in [2], 4; in series [3] it was 44; in [4] it was 4; in [5], 15; in series [6], 1. For the same molecule, the selectivity ratio worked out at 9 in [7] and 1 in series [8]. The GI50 was more than 100 mg/L in [9], more than 100 mg/L in series [10], 20.5 mg/L (≈ 51.4 µM) in series [15] and 35.1 mg/L (≈ 87.8 µM) in [16]. Moreover, the MIC90 stood at 24.6 mg/L in series [11], 35.2 mg/L (≈ 88.2 µM) in [12], 2.29 mg/L (≈ 5.73 µM) in series [13] and 3.35 mg/L (≈ 8.39 µM) in series [14].

As for `CCCCCn1cnc2sc(CC)cc2c1=O`, the selectivity ratio in [1] is 10; in [2], 2; in series [3], 10; in series [4] it was 2; in [5] it was more than 10; in series [6], 2. Moreover, the selectivity ratio in [7] was more than 10; in series [8] it was 2. For the same molecule, the GI50 in series [9], in series [10], in series [15] and in series [16] was more than 100 mg/L in each case. The MIC90 in [11] came to 44.1 mg/L; in series [12] it was 43.8 mg/L (≈ 175 µM); in series [13] it was 10.1 mg/L (≈ 40.3 µM); in series [14], 20.8 mg/L (≈ 82.9 µM).

As for `CCCCCCCc1cc2c(=O)n(CC#N)cnc2s1`, the selectivity ratio in series [1] is 53; in series [2], 40; in series [3] it was 53; in series [4], 40; in series [5] it was more than 53; in series [6] it was 40. For the same molecule, the selectivity ratio is more than 53 in [7] and 40 in series [8]. The GI50 in [9], in series [10], in [15] and in series [16] was more than 100 mg/L each time. Besides, the MIC90 in [11] amounted to 8.68 µM; in series [12], 5.2 mg/L (≈ 18 µM); in series [13], 1.89 mg/L (≈ 6.53 µM); in series [14], 3.02 mg/L (≈ 10.4 µM).

`CCCCCc1cc2c(=O)n(CC3CC3)cnc2s1`: the selectivity ratio is 20 in series [1]; 3 in series [2]; 20 in [3]; 3 in series [4]; more than 20 in series [5]; 3 in series [6]. Further, the selectivity ratio in [7] was more than 20; in [8], 3. Also, the GI50 in series [9], in series [10], in [15] and in [16] was more than 100 mg/L in each case. The MIC90 in series [11] was 38.3 mg/L; in series [12], more than 50 mg/L; in series [13] it was 4.95 mg/L (≈ 17.9 µM); in series [14] it was 8.07 mg/L (≈ 29.2 µM).

As to `CCCCCCc1cc2c(=O)n(CC3CC3)cnc2s1`, the selectivity ratio in series [1] was 73; in [2] it was 2; in series [3], 13; in series [5], more than 73; in series [6], 2; in series [7] it was 18. In series [8], the selectivity ratio came to 1. Also, the GI50 in [9] is more than 100 mg/L; in series [10] it was 17.6 mg/L (≈ 60.7 µM); in series [15] it was 24.8 mg/L (≈ 85.5 µM); in series [16], more than 100 mg/L. Also, the MIC90 was found to be 45.9 mg/L in series [11], 42.7 mg/L (≈ 147 µM) in series [12], 1.37 mg/L (≈ 4.72 µM) in [13] and 2.34 mg/L (≈ 8.06 µM) in [14].

Turning to `CCCCCCCc1cc2c(=O)n(CCN=[N+]=[N-])cnc2s1`, the selectivity ratio is 77 in series [1]; 48 in series [2]; 77 in [3]; 48 in series [4]; more than 77 in series [5]; 48 in series [6]. Besides, the selectivity ratio in [7] is more than 77; in [8] it was 48. The GI50 in [9], in series [10], in series [15] and in [16] was more than 100 mg/L each time. Further, the MIC90 in series [11] was 6.5 µM; in series [12] it was 8.33 mg/L (≈ 26.1 µM); in series [13] it was 1.3 mg/L (≈ 4.07 µM); in series [14] it was 2.26 mg/L (≈ 7.08 µM).

In the case of `CCCCCCCc1cc2c(=O)n(CCCBr)cnc2s1`, the selectivity ratio in [1] came out at 16; in [2], 6; in series [3] it was 16; in series [4], 6; in series [5], 5; in series [6], 2. Further, the selectivity ratio amounted to 3 in series [7] and 1 in series [8]. Further, the GI50 in [9] was more than 100 mg/L; in series [10], more than 100 mg/L; in series [15], 19.7 mg/L (≈ 53 µM); in [16], 34.1 mg/L (≈ 92 µM). Also, the MIC90 in [11] was found to be 17.5 mg/L; in [12], 18.5 mg/L (≈ 49.8 µM); in series [13], 6.3 mg/L (≈ 17 µM); in series [14], 9.37 mg/L (≈ 25.2 µM).

Turning to `CO[C@H]1/C=C/O[C@@]2(C)Oc3c(C)c(O)c4c(O)c(c(/C=N/N5CCN(C)CC5)c(O)c4c3C2=O)NC(=O)/C(C)=C\C=C\[C@H](C)[C@H](O)[C@@H](C)[C@@H](O)[C@@H](C)[C@H](OC(C)=O)[C@@H]1C` [RIFAMPIN], the selectivity ratio stood at 222 in series [1]; 196 in [2]; 222 in series [3]; 196 in series [4]; 196 in series [6]; 196 in series [8]. Besides, the GI50 in series [9], in series [10], in [15] and in series [16] was more than 100 mg/L each time. Also, the MIC90 in series [11] was determined as 0.51 mg/L; in [12], 0.75 mg/L (≈ 0.911 µM); in series [13], 0.45 mg/L (≈ 0.547 µM); in [14], 0.81 mg/L (≈ 0.984 µM).

As to `CCCCCCCCCCc1cc2c(=O)n(CCO)cnc2s1`, the selectivity ratio in [1] is 5; in [2], 15; in series [3] it was 5; in series [4], 15; in series [5] it was more than 5; in series [6] it was 15. The selectivity ratio in series [7] is more than 5; in series [8], 15. The GI50 in series [9], in [10], in [15] and in [16] was more than 100 mg/L throughout. Also, the MIC90 in [11] stood at 6.7 mg/L; in [12], 15 mg/L (≈ 44.6 µM); in [13], 21.4 mg/L (≈ 63.7 µM); in series [14], 23.4 mg/L (≈ 69.6 µM).

As for `CCCCCCCc1cc2c(=O)n(CC3CC3)cnc2s1`, the selectivity ratio in [1] is 66; in series [2], 2; in series [3], 66; in [4], 2; in series [5], more than 66; in series [6], 2. For the same molecule, the values for the selectivity ratio in series [7] and in series [8] were more than 66 and 2, respectively. The GI50 in series [9], in series [10], in series [15] and in series [16] was more than 100 mg/L in each case. The MIC90 in series [11] came to 49.3 mg/L; in [12], 49.1 mg/L (≈ 161 µM); in series [13], 1.52 mg/L (≈ 4.99 µM); in series [14], 2.01 mg/L (≈ 6.6 µM).

Source of the values: ChEMBL document CHEMBL3774361, “Synthesis and evaluation of thieno[2,3-d]pyrimidin-4(3H)-ones as potential antitubercular agents” (Medchemcomm, 2015).
